{
  "source": "patent US20250268429A1",
  "about": "“Fluid Dispenser With Automatic Fluid Composition Adjustment” (OP-HYGIENE IP GmbH, priority 2024, published 2025)",
  "system": "Bacillus subtilis spores",
  "assay": "in vitro killing of Bacillus subtilis spores by foam compositions (LOG reduction factor, CFU count)",
  "type": "cell-based",
  "details": "conclusion from Table 3",
  "experimental": "The compositions of Foams 1 to 6 are the same as in Table 1. Foam 7 contained 70% isopropanol.\nIn the in vitro experiments summarized above, the following method was used: the bacterial culture was serially diluted (1 LOG); the tested foam was added to 50 μL of the diluted solution and stirred for 15 seconds; the resulting mixture was transferred to an agar plate and incubated for 24 hours before counting the bacterial colonies (CFUs). The LOG reduction factor was calculated as the LOG bacteria before treatment minus the LOG bacteria after treatment.",
  "data": [
    {"smiles": "CC(C)O", "note": "[Isopropanol, isopropanol]", "values": [
      {"measurement": "effectiveness at killing Bacillus subtilis spores (in words)", "result": "not effective"}
    ]}
  ]
}
